Entries after “also recorded” stand apart in the source; their conditions may differ. Marks after values point to notes of the source that are not given here.

The subject of series [1] is patients with major depressive disorder. The settings on record: meta-analysis, cited from earlier work; for rates of gastrointestinal adverse reactions compared to placebo: 15 most commonly used antidepressants in MDD; for tolerability on the gastrointestinal tract among antidepressants: patients with MDD.
For series [2] the following is noted: clinical trials; meta-analysis; cited from earlier work.
Series [3] relates to adults with MDD. The experiment in a line: Study NCT04476030: treatment-emergent adverse events (safety set). The series is classed as in vivo, human. The following applies: for tolerability: zuranolone 50 mg once daily 14 days co-initiated with SOC ADT. The method, then: (§1) A randomized, double-blind, parallel-group, active/placebo-controlled study (NCT04476030) in participants with major depressive disorder (MDD) was conducted. The study evaluated the efficacy and safety of zuranolone 50 mg co-initiated with standard-of-care (SOC) antidepressant therapies (ADTs) (zuranolone+ADT) vs placebo co-initiated with SOC ADT (placebo+ADT) in adults with MDD. Patients were randomized 1:1 to once-daily, blinded zuranolone+ADT or placebo+ADT for 14 days then continued open-label SOC ADT for 28 more days.
An AE could therefore be any unfavorable and unintended sign (including an abnormal laboratory finding), symptom or disease temporally associated with the use of a medicinal (investigational) product whether or not related to the medicinal (investigational) product. In clinical studies, an AE could include an undesirable medical condition occurring at any time, including baseline or washout periods, even if no study treatment had been administered.
A treatment emergent adverse event (TEAE) was defined as an AE with onset after the start of investigational product (IP), or any worsening of a pre-existing medical condition/AE with onset after the start of IP and throughout the study. The term IP included any Sage IP, a comparator, or a placebo administered in a clinical study.
The investigator made the determination of relationship to the IP for each AE (not related, related). The following definitions should have been considered when evaluating the relationship of AEs and SAEs to the IP.

Series [4] relates to adults with MDD. The experiment in a line: Study NCT04476030: suicidal ideation/behavior by C-SSRS. It counts as in vivo, human. The settings on record: compared to baseline. The method, then: as §1
(§2) The proportion of patients who had suicidal ideation at any post baseline visit from Day 3 through Day 42 ranged from 4.8% to 11.7% in the zuranolone+ADT group and from 6.0% to 12.4% in the placebo+ADT group. No patients who received placebo+ADT experienced suicidal behavior.

Series [5] has as its system adults with MDD. Kind of series: Study NCT04476030: withdrawal symptoms by Physician Withdrawal Checklist (PWC-20). It counts as in vivo, human. The method, then: as §1, §2
Setting [6] is: ADT continuation period, of 212.
Where [7] appears, read: double blinded treatment period.
The mark [8] stands for this setting: double blinded treatment period, of 212.
Where [9] appears, read: safety set n=212, listed as zuranolone+ADT.
[10] abbreviates: zuranolone 50 mg + ADT, safety set n=212, whole study.

Regarding `COc1ccc2cccc(CCNC(C)=O)c2c1` [agomelatine], the “rates of gastrointestinal adverse reactions compared to placebo” value (“rates … compared to placebo” for short) in series [1] is reported as “higher rates”.

In the case of `CC(NC(C)(C)C)C(=O)c1cccc(Cl)c1` (stereo not shown) [bupropion], in series [1], the “rates … compared to placebo” value is recorded as “higher rates”.

On to `CN(C)CCCC1(c2ccc(F)cc2)OCc2cc(C#N)ccc21` (stereo not shown) [citalopram], for which the “rates … compared to placebo” value in series [1] is “higher rates”.

Take `CN(C)CC(c1ccc(O)cc1)C1(O)CCCCC1` (stereo not shown) [desvenlafaxine]: the “rates … compared to placebo” value in series [1] was “higher rates”.

As for `CNCC[C@H](Oc1cccc2ccccc12)c1cccs1` [duloxetine], in series [1], the “rates … compared to placebo” value was “higher rates”.

Take `CN(C)CCC[C@@]1(c2ccc(F)cc2)OCc2cc(C#N)ccc21` [escitalopram]: in series [1], the “rates … compared to placebo” value is “higher rates” and the “tolerability on the gastrointestinal tract among antidepressants” value is “least tolerated”.

Consider `CNCCC(Oc1ccc(C(F)(F)F)cc1)c1ccccc1` (stereo not shown) [fluoxetine], for which the “rates … compared to placebo” value in series [1] is recorded as “higher rates”.

In the case of `COCCCC/C(=N\OCCN)c1ccc(C(F)(F)F)cc1` [fluvoxamine], the “rates … compared to placebo” value in series [1] was “higher rates”.

For the compound `CCN(CC)C(=O)[C@@]1(c2ccccc2)C[C@H]1CN` [levomilnacipran], the “rates … compared to placebo” value in series [1] was “higher rates”.

Take `CN1CCN2c3ncccc3Cc3ccccc3C2C1` (stereo not shown) [mirtazapine]: the “rates … compared to placebo” value in series [1] is reported as “higher rates”.

Regarding `Fc1ccc([C@@H]2CCNC[C@H]2COc2ccc3c(c2)OCO3)cc1` [paroxetine], in series [1], the “rates … compared to placebo” value is on record as “higher rates”.

For the compound `CCOc1ccccc1OC(c1ccccc1)C1CNCCO1` (stereo not shown) [reboxetine], the “rates … compared to placebo” value in series [1] was “higher rates”.

Turning to `CN[C@H]1CC[C@@H](c2ccc(Cl)c(Cl)c2)c2ccccc21` [sertraline], the “incidence of diarrhea compared to other SSRIs and venlafaxine” value in series [2] is “higher incidence of diarrhea”. In series [1], the “rates … compared to placebo” value is reported as “higher rates” and the “tolerability on the gastrointestinal tract among antidepressants” value was “least tolerated”.

For the compound `COc1ccc(C(CN(C)C)C2(O)CCCCC2)cc1` (stereo not shown) [venlafaxine], the “rates of nausea and vomiting compared to SSRIs and duloxetine” value in series [2] was “higher rates of nausea and vomiting”. Further, in series [1], the “rates … compared to placebo” value is given as “higher rates”.

Take `Cc1ccc(Sc2ccccc2N2CCNCC2)c(C)c1` [vortioxetine]: the “rates … compared to placebo” value in series [1] was “higher rates”.

As to zuranolone [Zuranolone + ADT], in series [3] (ADT continuation period), the “Sexual Dysfunction TEAE, incidence” value was 0.9%; the “Sleep Disorders TEAE, incidence” value was determined as 3.8%; the “TEAEs during the ADT continuation period, incidence” value came out at 31.6%. Besides, in series [3] (setting [6]), the “Sexual Dysfunction TEAE, number of patients” value came out at 2; the “Sleep Disorders TEAE, number of patients” value stood at 8; the “TEAEs during the ADT continuation period, number of patients” value was found to be 67. Besides, the “incidence of gastrointestinal AEs (e.g., nausea, diarrhea) vs placebo+ADT” value in series [3] (comparison with placebo+ADT) is reported as “lower incidence”. In addition, in series [3] (setting [7]), the “Sexual Dysfunction TEAE, incidence” value was found to be 3.8% and the “Sleep Disorders TEAE, incidence” value came out at 9.9%. In series [3] (setting [8]), the “Sexual Dysfunction TEAE, number of patients” value is listed as 8 and the “Sleep Disorders TEAE, number of patients” value is on record as 21. In series [3] (double-blind treatment period), the “TEAEs during the double-blind treatment period, incidence” value came to 68.4%. For the same compound, in series [3] (double-blind treatment period, of 212), the “TEAEs during the double-blind treatment period, number of patients” value stood at 145. Besides, in series [3] (safety set n=212), the “Decreased Appetite TEAE, incidence” value is recorded as “(5.7%)”; the “Decreased Appetite TEAE, number of patients” value came out at 12; the “Diarrhea TEAE, incidence” value is “(6.1%)”; the “Diarrhea TEAE, number of patients” value was determined as 13. Also, in series [3] (safety set n=212), the “Dizziness TEAE, number of patients” value is given as 28; the “Dose reduction due to TEAE, incidence” value is “(9.4%)”; the “Dose reduction due to TEAE, number of patients” value stood at 20; the “Dry Mouth TEAE, incidence” value is “(9.4%)”. Further, in series [3] (safety set n=212), the “Dry Mouth TEAE, number of patients” value amounted to 20; the “Fatigue TEAE, incidence” value is given as “(8.5%)”; the “Fatigue TEAE, number of patients” value worked out at 18; the “Headache TEAE, number of patients” value is 25. For the same compound, in series [3] (safety set n=212), the “Insomnia TEAE, incidence” value is “(9.9%)”; the “Insomnia TEAE, number of patients” value amounted to 21; the “Nausea TEAE, number of patients” value was found to be 19; the “Sedation TEAE, incidence” value was “(5.7%)”. In series [3] (safety set n=212), the “Sedation TEAE, number of patients” value came out at 12; the “Serious AEs, incidence” value is “(0.9%)^c”; the “Serious AEs, number of patients” value came to 2; the “Somnolence TEAE, number of patients” value turned out to be 39. In series [3] (safety set n=212), the “Study withdrawal due to TEAE, incidence” value is on record as “(5.2%)”; the “Study withdrawal due to TEAE, number of patients” value is given as 11; the “TEAE maximum severity Mild, incidence” value is reported as “(35.8%)”; the “TEAE maximum severity Mild, number of patients” value is listed as 76. In series [3] (safety set n=212), the “TEAE maximum severity Moderate, incidence” value is given as “(34.4%)”; the “TEAE maximum severity Moderate, number of patients” value came to 73; the “TEAE maximum severity Severe, incidence” value was “(3.8%)”; the “TEAE maximum severity Severe, number of patients” value is recorded as 8. Also, in series [3] (safety set n=212), the “Treatment discontinuation due to TEAE, incidence” value was “(6.6%)”; the “Treatment discontinuation due to TEAE, number of patients” value is 14; the “Tremor TEAE, incidence” value is “(5.2%)”; the “Tremor TEAE, number of patients” value turned out to be 11. Moreover, in series [3] (setting [9]), the “Dizziness TEAE, incidence” value was found to be 13.2%; the “Headache TEAE, incidence” value came out at 14.7%; the “Nausea TEAE, incidence” value worked out at 9.0%; the “Serious AEs, incidence” value is 0.9%. In series [3] (setting [9]), the “Serious AEs, number of patients” value was “Two” and the “Somnolence TEAE, incidence” value worked out at 18.4%. In series [3] (whole study), the “Gastrointestinal disorder TEAE, incidence” value is 29.7%; the “Sexual Dysfunction TEAE, incidence” value amounted to 4.7%; the “Sleep Disorders TEAE, incidence” value is listed as 12.7%. Further, in series [3] (whole study, of 212), the “Gastrointestinal disorder TEAE, number of patients” value was determined as 63; the “Sexual Dysfunction TEAE, number of patients” value was 10; the “Sleep Disorders TEAE, number of patients” value was found to be 27. Besides, in series [3] (setting [10]), the “Any TEAE, incidence” value is listed as “(74.1%)” and the “Any TEAE, number of patients” value turned out to be 157. Moreover, in series [3] (zuranolone 50 mg + ADT, safety set n=212, whole study, listed as zuranolone+ADT), the “Any TEAE, incidence” value is recorded as 74.1%. Moreover, in series [3], the tolerability entry is “generally well-tolerated”. In series [3] (listed as zuranolone co-initiated with an SOC ADT), the tolerability entry was “generally well tolerated”. In addition, in series [4], the “suicidal ideation/behavior signals vs baseline (C-SSRS)” value is “No increases from baseline; also recorded: No signals for an increased suicidal ideation or suicidal behavior”. Moreover, the “mean decrease from baseline in PWC-20 total score” value in series [5] (Day 18) is recorded as −0.6. Also, in series [5] (Day 21), the “mean decrease from baseline in PWC-20 total score” value was −0.8. The “withdrawal symptoms (PWC-20)” value in series [5] (after discontinuation) is “No increases from baseline; also recorded: No signals for an evidence of withdrawal symptoms”.
